Measured values taken from ChEMBL document CHEMBL4364346, “Structure optimization of a new class of PPARγ antagonists” (Bioorg Med Chem, 2019).
In brackets after ≈: the same amount, converted by molar mass.

target: T1, Peroxisome proliferator-activated receptor gamma (Homo sapiens, UniProt P37231); test: Antagonist actvity in pFA-GAL4-DBD fused PPARgamma LBD (unknown origin) transfected in HEK293T cells assessed as inhibition of rosiglitazone-induced PPARgamma transactivation incubated for 24 hrs by luciferase reporter gene assay; type: cell-based; conditions: not given
T1 sequence (P37231 whole entry): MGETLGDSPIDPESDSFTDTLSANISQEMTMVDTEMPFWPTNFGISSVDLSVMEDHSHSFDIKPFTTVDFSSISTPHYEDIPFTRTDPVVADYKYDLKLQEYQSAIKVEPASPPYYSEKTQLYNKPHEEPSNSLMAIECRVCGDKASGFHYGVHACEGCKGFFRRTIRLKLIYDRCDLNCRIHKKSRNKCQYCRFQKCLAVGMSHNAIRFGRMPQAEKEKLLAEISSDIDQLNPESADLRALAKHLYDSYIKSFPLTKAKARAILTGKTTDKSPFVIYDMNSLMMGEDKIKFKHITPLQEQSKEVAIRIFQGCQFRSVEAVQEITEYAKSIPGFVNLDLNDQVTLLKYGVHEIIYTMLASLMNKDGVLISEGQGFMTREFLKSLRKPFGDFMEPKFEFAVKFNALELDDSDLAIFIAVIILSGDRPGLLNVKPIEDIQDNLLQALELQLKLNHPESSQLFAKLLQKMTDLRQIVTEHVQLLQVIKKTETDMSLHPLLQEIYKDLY

IC50 | Compound
Not Active | COc1cc(C(F)(F)F)nc2ccc(COc3ccc(OCc4ccc(F)cc4)c(/C=C(\F)C(=O)O)c3)cc12
Not Active | CCC/C(=C\c1cc(OCc2ccc(N(C)C)cc2)ccc1OCc1ccc(F)cc1)C(=O)O
Not Active | CCCCC(Cc1cc(OCc2ccc3nc(C(F)(F)F)cc(OC)c3c2)ccc1OCc1ccc(C(F)(F)F)cc1)C(=O)O (configuration not stated)
Not Active | CCC/C(=C\c1cc(OCc2ccc3[nH]ccc3c2)ccc1OCc1ccc(F)cc1)C(=O)O
Not Active | CCC/C(=C\c1cc(OCc2ccc3nc(C(F)(F)F)cc(OC)c3c2)ccc1OCC1CCNCC1)C(=O)O
Not Active | CCCC/C(=C\c1cc(OCc2cn(Cc3ccc(C(=O)O)cc3)nn2)ccc1OCc1ccc(C(F)(F)F)cc1)C(=O)O
Not Active | CCC/C(=C\c1cc(OC)ccc1OCc1ccc2nc(C(F)(F)F)cc(OC)c2c1)C(=O)O

same assay, conditions: read-out: IC50

IC50 | Compound
9.6 µM | CCC/C(=C\c1cc(OCc2ccc3nc(C(F)(F)F)cc(OC)c3c2)ccc1OCCN1CCNCC1)C(=O)O
9.5 µM | CCC/C(=C\c1cc(OCc2ccc3nc(C(F)(F)F)cc(OC)c3c2)ccc1NC(=O)c1ccc(F)cc1)C(=O)O
13.1 µM | CCC/C(=C\c1cc(OCc2ccc3ccccc3n2)ccc1OCc1ccc(F)cc1)C(=O)O
2.3 µM | CCCC/C(=C\c1cc(OCc2ccc3nc(C(F)(F)F)cc(OC)c3c2)ccc1OCc1ccc(F)cc1)C(=O)O
3.2 µM | CCC/C(=C\c1cc(OCc2ccc3nc(C(F)(F)F)cc(OC)c3c2)ccc1OCc1ccc(F)cc1)C(=O)O
1.9 µM | CCCC/C(=C\c1cc(OCc2ccc3nc(C(F)(F)F)cc(OC)c3c2)ccc1OCc1ccc(OC(F)(F)F)cc1)C(=O)O
7.5 µM | COc1cc(C(F)(F)F)nc2ccc(COc3ccc(OCC4CCN(C)CC4)c(/C=C(\CCC4CC4)C(=O)O)c3)cc12
5.7 µM | CC/C(=C\c1cc(OCc2ccc3nc(C(F)(F)F)cc(OC)c3c2)ccc1OCc1ccc(F)cc1)C(=O)O
4.7 µM | CCC/C(=C\c1cc(OCc2ccc3nc(C(F)(F)F)cc(OC)c3c2)ccc1OCc1ccncc1)C(=O)O
7.2 µM | CCC/C(=C\c1cc(OCc2ccc3nc(C(F)(F)F)cc(OC)c3c2)ccc1OCc1ccccc1)C(=O)O
3.5 µM | CCC/C(=C\c1cc(OCc2ccc3nc(C(F)(F)F)cc(OC)c3c2)ccc1OCc1ccccc1F)C(=O)O
9.4 µM | COc1cc(C(F)(F)F)nc2ccc(COc3ccc(OCc4ccc(F)cc4)c(/C=C(\C)C(=O)O)c3)cc12
6.1 µM | CCC/C(=C\c1cc(OCc2ccc3c(ccc[n+]3[O-])c2)ccc1OCc1ccc(F)cc1)C(=O)O
15.1 µM | CCC/C(=C\c1cc(OCc2ccc3ncccc3c2)ccc1OCC1CCN(C)CC1)C(=O)O
8.4 µM | COc1cc(C(F)(F)F)nc2ccc(COc3ccc(OCc4ccc(F)cc4)c(/C=C(\CC4CC4)C(=O)O)c3)cc12
11 µM | COc1cc(C(F)(F)F)nc2ccc(COc3ccc(OCc4ccc(F)cc4)c(/C=C/C(=O)O)c3)cc12
4.2 µM | CCC/C(=C\c1cc(OCc2ccc3nc(C)ccc3c2)ccc1OCc1ccc(F)cc1)C(=O)O
6.1 µM | CCC/C(=C\c1cc(OCc2ccc3[nH]c(=O)ccc3c2)ccc1OCc1ccc(F)cc1)C(=O)O
3.9 µM | CCCn1c(C(=O)O)cc2c(OC)ccc(OCc3ccc4nc(C(F)(F)F)cc(OC)c4c3)c21
15.8 µM | CCC/C(=C\c1cc(OCc2ccc3ccccc3c2)ccc1OCc1ccc(F)cc1)C(=O)O
2.6 µM | CCCC/C(=C\c1cc(OCc2ccc3nc(C(F)(F)F)cc(OC)c3c2)ccc1OCc1ccc(OC(F)F)cc1)C(=O)O
5 µM | CCC/C(=C\c1cc(OCc2ccc3ncccc3c2)ccc1OCc1ccc(F)cc1)C(=O)O
23.9 µM | CCC/C(=C\c1cc(OCc2ccc3cccnc3c2)ccc1OCc1ccc(F)cc1)C(=O)O
3.9 µM | CCC/C(=C\c1cc(OCc2ccc3nc(C(F)(F)F)cc(OC)c3c2)ccc1OCc1cccc(F)c1)C(=O)O

test system: not listed separately; test: Solubility of compound in PBS buffer pH 7.4 with 1% DMSO measured after 1 and 24 hrs; type: physicochemical; conditions: PBS buffer with 1% DMSO; call rule not given here

solubility at 24 h | Compound
50 to 75 µM (≈ 31.7 to 47.5 µg/mL) | CCCC/C(=C\c1cc(OCc2ccc3nc(C(F)(F)F)cc(OC)c3c2)ccc1OCc1ccc(C(F)(F)F)cc1)C(=O)O
